Measured values taken from publication PMC8876525 (Viruses, 2022).
Marks after values point to notes of the source that are not given here.

Key:
[1] = test system: HBV; test: Secreted HBV DNA in HepAD38 culture supernatant (RT-qPCR); type: cell-based; conditions: for EC50: read-out: EC50 (secreted HBV DNA); for Residual HBV DNA level (secreted) relative to DMSO control: 20 μM compound
[2] = test system: HBsAg; test: Secreted HBsAg ELISA; type: cell-based, HBV; conditions: 6 days, ETV 25 nM, BAY 41-4109 2 μM
[3] = biological target: Cp149 protein (Hepatitis B virus genotype D subtype ayw, UniProt P03146); test: Cp149 capsid assembly in vitro, transmission electron microscopy; type: biochemical, HBV; conditions: Cp149 5 μM dimer, 300 mM NaCl, 150 mM HEPES pH 7.5; BAY 41-4109 5 μM 3 days, C-39 20 μM 3 and 7 days
[4] = test system: HBV encapsidated pgRNA; test: Encapsidated pgRNA and total HBV RNAs (Northern blot); type: cell-based; conditions: HepAD38 cells, BAY 41-4109 2 μM; for Effect on intracellular total HBV RNAs: C-18, C-39 5 μM; for Effect on HBV encapsidated pgRNA: C-18, C-39, C-19 5 μM, ETV 25 nM
[5] = biological target: HBc (Hepatitis B virus genotype D subtype ayw, UniProt P03146); test: Immunofluorescence of HBV core protein in HepAD38 cells; type: cell-based; conditions: 3 days, BAY 41-4109 2 μM; for HBc localisation / aggregation: C-18 and C-39 5 μM
[6] = biological target: HBV capsid (Hepatitis B virus genotype D subtype ayw, UniProt P03146); test: Intracellular HBV capsid formation; type: cell-based; conditions: 6 days; for Effect on intracellular HBV capsid formation at single concentration: HepAD38 or HepG2-HBV1.3 cells, compounds 10 μM, ETV 25 nM, BAY 41-4109 2 μM
[7] = CCK-8 cytotoxicity assay in HepAD38 cells; type: cell-based, Human; conditions: human, 6 days
[8] = test system: HBV 3.5 kb RNA; test: Intracellular HBV 3.5 kb RNA (RT-qPCR); type: cell-based; conditions: 6 days
[9] = test system: HBV; test: HepG2-NTCP de novo HBV infection model (viral markers, cccDNA Taq-Man qPCR); type: cell-based; conditions: HepG2-NTCP cells, 5 μM
[10] = test system: HBV core DNA; test: Intracellular HBV core DNA (qPCR) and replicative intermediates (Southern blot); type: cell-based; conditions: 6 days; for Effect on intracellular HBV core DNA: qPCR
[11] = test system: HBV; test: Secreted HBV DNA in HepG2-HBV1.3 culture supernatant (RT-qPCR); type: cell-based; conditions: HepG2-HBV1.3 cells
[12] = test system: HBeAg; test: Secreted HBeAg ELISA; type: cell-based, HBV; conditions: 6 days
[13] = CCK-8 cytotoxicity assay in HepG2-HBV1.3 (HepG2) cells; type: cell-based; conditions: human
[14] = test system: HepAD38 cells; test: CCK-8 cytotoxicity assay in HepAD38 cells; type: cell-based, Human
[15] = test system: ETV-resistant mutant (rtL180M/S202G/M204V) HBV; test: Drug susceptibility assay, HepG2 transfected with ETV-resistant mutant; type: cell-based; conditions: Hepatitis B virus, HepG2, 144 h, read-out: viral replication EC50
[16] = test system: wild-type HBV; test: Drug susceptibility assay, HepG2 transfected with HBV1.1-WT; type: cell-based; conditions: Hepatitis B virus, 144 h; wild-type HBV in HepG2, secreted HBV DNA, 6 days; read-out: viral replication EC50
[17] = Hepatitis B virus, 144 h, HepAD38 cells, 6 days

Sequence of HBV capsid (P03146 whole entry): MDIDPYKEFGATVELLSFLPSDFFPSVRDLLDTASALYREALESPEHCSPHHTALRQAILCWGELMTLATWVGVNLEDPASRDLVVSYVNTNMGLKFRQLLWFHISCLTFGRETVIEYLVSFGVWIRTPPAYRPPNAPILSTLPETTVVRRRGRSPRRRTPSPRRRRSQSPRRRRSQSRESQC
Sequence of HBc (P03146 whole entry): as above
Sequence of Cp149 protein (P03146 1-149): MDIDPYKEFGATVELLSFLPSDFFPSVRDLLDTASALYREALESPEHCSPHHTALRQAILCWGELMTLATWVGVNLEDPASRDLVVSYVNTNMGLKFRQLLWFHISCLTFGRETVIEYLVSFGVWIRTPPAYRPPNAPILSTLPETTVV

SMILES	Effect on intracellular HBV capsid formation at single concentration [6]	SI (CC50/EC50) ([1]; HepAD38 cells)	EC50 [1, 17] [nM]	CC50 at 6 days [7] [nM]	further results
COC(=O)C1=C(C)NC(c2ncc(F)cc2F)=N[C@H]1c1ccc(F)cc1Cl [BAY 41-4109, reference compound]	dramatically inhibited capsid formation	–	–	–	EC50 ([1]; HepAD38 cells, 6 days): 67 ± 10 nM; Effect on secreted HBsAg ([2]; HepAD38 cells): no impact on HBsAg production; Effect on secreted HBsAg ([2]; HepG2-HBV1.3 cells): no impact on HBsAg production; Morphology of assembled Cp149 particles (TEM) [3]: large irregular particles; Effect on intracellular total HBV RNAs [4]: slight decrease; Effect on HBV encapsidated pgRNA [4]: markedly downregulated; HBc localisation / aggregation [5]: induced punctate HBc aggregation within the nucleus; HBc level by immunofluorescence ([5]; C-39 5 μM): significantly decreased the HBc level
Cc1onc(C(=O)Nc2ccc(F)c(F)c2)c1COc1cccc(C(F)(F)F)c1 [Compound C-1]	–	–	–	–	Residual HBV DNA level (secreted) relative to DMSO control ([1]; HepAD38 cells): 62%
O=C(Nc1ccc(F)c(F)c1)c1cc2nccc(-c3cccs3)n2n1 [Compound C-2]	–	–	–	–	Residual HBV DNA level (secreted) relative to DMSO control ([1]; HepAD38 cells): 44%
Cc1nnc2ccc(N3CCCC(C(=O)Nc4ccc(F)c(Cl)c4)C3)nn12 (centres unmarked) [Compound C-4]	–	–	–	–	Residual HBV DNA level (secreted) relative to DMSO control ([1]; HepAD38 cells): 21%
Nc1nc(N2C(=O)C3CC=CCC3C2=O)nn1-c1ccccc1 (centres unmarked) [Compound C-5]	–	–	–	–	Residual HBV DNA level (secreted) relative to DMSO control ([1]; HepAD38 cells): 51%
Cc1cc(O)c(C2=Nc3c(C(N)=O)cnn3C(c3cccc(Cl)c3)C2)c(=O)o1 (centres unmarked) [Compound C-6]	–	–	–	–	Residual HBV DNA level (secreted) relative to DMSO control ([1]; HepAD38 cells): 36%
O=C(CSc1nnc(-c2cccs2)n1CCc1ccccc1)Nc1ccc(F)cc1 [Compound C-7]	moderate inhibition	>54.7	1830 ± 440	> 100000	–
COc1cccc(-c2noc([C@@H]3CCCN3C(=O)Nc3ccc(F)c(Cl)c3)n2)c1 [Compound C-9]	did not affect the capsid formation	23.4	1140 ± 230	26600 ± 2000	–
Cc1cccc(NC(=O)c2ccc3nnc(SCC(=O)Nc4ccc(F)c(F)c4)n3c2)c1 [Compound C-16]	did not affect the capsid formation	56.3	1290 ± 350	72400 ± 1900	–
Cc1cc2c(cc1S(=O)(=O)N1CCCC(C(=O)Nc3ccc(F)c(Cl)c3)C1)OC(C)C(=O)N2 (centres unmarked) [Compound C-18]	strongly inhibited	131.2	110 ± 30	14800 ± 700	Effect on secreted HBsAg ([2]; HepAD38 cells): no impact on HBsAg; Effect on intracellular total HBV RNAs [4]: slight decrease; Effect on HBV encapsidated pgRNA [4]: markedly downregulated; Effect on intracellular HBV 3.5 kb RNA ([8]; HepAD38 cells): dramatic decrease; Effect on intracellular HBV 3.5 kb RNA ([8]; HepG2-HBV1.3 cells): downregulated; HBc localisation / aggregation [5]: induced punctate HBc aggregation within the nucleus; Effect on intracellular HBV capsid formation, concentration series ([6]; HepG2-HBV1.3 cells): downregulated; Effect on cccDNA formation, treatment together with viral inoculum (day 0) [9]: prevented the formation of cccDNA during the early postentry step; Effect on pre-established cccDNA, treatment 4 days after infection (day 4) [9]: minor effect; Effect on HBV replicative intermediates ([10]; HepAD38 cells, Southern blot): notably downregulated; Effect on intracellular HBV core DNA ([10]; HepAD38 cells): dramatic decrease; Effect on intracellular HBV core DNA ([10]; HepG2-HBV1.3 cells): downregulated; SI (CC50/EC50) [11]: 147.1; EC50 ([11]; Hepatitis B virus, 144 h, 6 days): 140 nM; Effect on secreted HBeAg ([12]; HepAD38 cells): reduced the HBeAg level; Effect on secreted HBeAg ([12]; HepG2-HBV1.3 cells): downregulated; CC50 at 6 days [13]: 20600 nM
O=C(Nc1ccc(F)c(F)c1)c1cc(S(=O)(=O)N(CCc2ccccc2)Cc2ccccc2)ccc1F [Compound C-19]	did not affect the capsid formation	194.1	390 ± 130	75300 ± 5200	Effect on HBV encapsidated pgRNA [4]: slight effects
O=C(CSc1nnc2ccc(C(=O)Nc3cccc(F)c3)cn12)Nc1ccc(F)c(F)c1 [Compound C-25]	–	114.6 ^a	290 ± 20	33200 ± 1900	–
CC1(C(=O)NCc2ccc(F)cc2)CCCN(C(=O)Nc2ccc(F)c(Cl)c2)C1 (centres unmarked) [Compound C-27]	–	72.8 ^a	1120 ± 50	81500 ± 5800	–
Cc1cc2c(cc1S(=O)(=O)N1CCCC(C(=O)Nc3ccc(F)c(Cl)c3)C1)OCC(=O)N2 (centres unmarked) [Compound C-29]	–	14.1 ^a	1290 ± 10	18200 ± 2200	Cytotoxicity in words [14]: medium cytotoxicity
CC(=O)N1c2ccc(S(=O)(=O)N3CCCC(C(=O)Nc4ccc(F)c(Cl)c4)C3)cc2CC1C (centres unmarked) [Compound C-31]	–	96.0 ^a	260 ± 30	25000 ± 3300	–
CC1Oc2ccc(S(=O)(=O)N3CCCC(C(=O)Nc4ccc(F)c(Cl)c4)C3)cc2NC1=O (centres unmarked) [Compound C-35]	–	23.9 ^a	410 ± 10	9800 ± 1000	Cytotoxicity in words [14]: medium cytotoxicity
CCOC(=O)c1c(C)[nH]c(C)c1S(=O)(=O)N1CCCC(C(=O)Nc2ccc(F)c(Cl)c2)C1 (centres unmarked) [Compound C-37]	–	31.3 ^a	350 ± 50	11000 ± 700	–
O=C(Nc1ccc(F)c(Cl)c1)C1CCCN(S(=O)(=O)c2c[nH]c(C(=O)N3CCCC3)c2)C1 (centres unmarked) [Compound C-40]	–	32.3 ^a	390 ± 10	12600 ± 700	Cytotoxicity in words [14]: medium cytotoxicity
Cc1nc(-c2csc(S(=O)(=O)N3CCCC(C(=O)Nc4ccc(F)c(Cl)c4)C3)c2)no1 (centres unmarked) [Compound C-41]	–	1542 ^a	62 ± 13	95600 ± 15700	–
C=C1[C@H](CO)[C@@H](O)C[C@@H]1n1cnc2c(=O)[nH]c(N)nc21 [ETV, Entecavir, reference compound]	much less or no inhibition effects	–	–	–	EC50 ([1]; Hepatitis B virus, HePAD38, 144 h): 3 ± 1 nM; Effect on secreted HBsAg ([2]; HepAD38 cells): no impact on HBsAg production; Effect on secreted HBsAg ([2]; HepG2-HBV1.3 cells): no impact on HBsAg production; Effect on HBV encapsidated pgRNA [4]: upregulated; EC50 [15]: 6.1 nM; EC50 [16]: 3.2 nM
